Experiments:
Assay in all cases: relative viability (nuclei count vs DMSO), 5 days (fraction); higher = more cells survive
[1] = compound: O=C(C[C@H]1NCCC[C@@H]1O)Cn1cnc2cc(Br)c(Cl)cc2c1=O (racemic) [Halofuginone] + CC(C)C[C@H](NC(=O)[C@H](Cc1ccccc1)NC(=O)c1cnccn1)B(O)O [Bortezomib] (partner 0.002 µM)
In short: (§1)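 After 5 days of treatment, lung cancer cells in 1536-well plates were fixed and stained in a single step (final 0.05% Triton X-100, 1% formaldehyde, 1 ug/ml Hoechst) and their nuclei counted on 4× images. Treatment had been applied by pin tool the day after seeding as one drug alone or as a fixed anchor-drug dose with five library-drug doses (not always all listed) in √10 steps. Relative viability is the nuclei count of treated wells divided by that of vehicle wells, and values are medians of duplicate plates.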

Decitabine + Olaparib = compound: Nc1ncn([C@H]2C[C@H](O)[C@@H](CO)O2)c(=O)n1 [Decitabine] + O=C(c1cc(Cc2n[nH]c(=O)c3ccccc23)ccc1F)N1CCN(C(=O)C2CC2)CC1 [Olaparib] (partner 8 µM)
In short: as §1

[2] = compound: O=C(C[C@H]1NCCC[C@@H]1O)Cn1cnc2cc(Br)c(Cl)cc2c1=O (racemic) [Halofuginone] + Nc1nc2[nH]cc(CCc3ccc(C(=O)N[C@@H](CCC(=O)O)C(=O)O)cc3)c2c(=O)[nH]1 [Pemetrexed] (partner 0.2 µM)
In short: as §1

Cediranib + Dasatinib = compound: COc1cc2c(Oc3ccc4[nH]c(C)cc4c3F)ncnc2cc1OCCCN1CCCC1 [Cediranib] + Cc1nc(Nc2ncc(C(=O)Nc3c(C)cccc3Cl)s2)cc(N2CCN(CCO)CC2)n1 [Dasatinib] (partner 0.075 µM)
In short: as §1

Cell Line | relative viability ([1]; first compound 0.001 µM) | relative viability ([1]; first compound 0.003162 µM) | relative viability ([1]; first compound 0.01 µM) | relative viability ([1]; first compound 0.03162 µM) | relative viability ([1]; first compound 0.1 µM) | relative viability (Decitabine + Olaparib; first compound 0.04 µM) | relative viability (Decitabine + Olaparib; first compound 0.1265 µM) | relative viability (Decitabine + Olaparib; first compound 0.4 µM) | relative viability (Decitabine + Olaparib; first compound 4 µM) | relative viability ([2]; first compound 0.001 µM) | relative viability ([2]; first compound 0.003162 µM) | relative viability ([2]; first compound 0.01 µM) | relative viability ([2]; first compound 0.03162 µM) | relative viability ([2]; first compound 0.1 µM) | relative viability (Cediranib + Dasatinib; first compound 0.04 µM) | relative viability (Cediranib + Dasatinib; first compound 0.1265 µM) | relative viability (Cediranib + Dasatinib; first compound 0.4 µM) | relative viability (Cediranib + Dasatinib; first compound 1.265 µM) | relative viability (Cediranib + Dasatinib; first compound 4 µM) | relative viability (Decitabine + Olaparib; first compound 1.265 µM)
201T | 1.06 | 1.1 | 1.15 | 1.1 | 1.16 | 0.555 | 0.494 | 0.406 | 0.781 | 0.31 | 0.329 | 0.346 | 0.311 | 0.313 | 0.622 | 0.67 | 0.628 | 0.575 | 0.582 | 
A549 |  |  |  |  |  | 0.15 | 0.112 | 0.049 | 0.0404 |  |  |  |  |  |  |  |  |  |  | 0.0246
A-427 | 1 | 0.869 | 1 | 0.954 | 0.932 | 0.474 | 0.443 | 0.281 | 0.217 | 1 | 1.03 | 0.945 | 0.946 | 0.887 | 0.683 |  | 0.672 | 0.596 | 0.919 | 0.248
ABC-1 | 0.255 | 0.328 | 0.24 | 0.367 | 0.279 |  | 0.616 | 0.77 | 0.573 |  |  |  |  |  | 0.536 | 0.651 | 0.448 | 0.474 | 0.457 | 0.473
BEN | 0.865 | 0.826 | 0.865 | 0.682 | 0.408 | 0.666 | 0.595 | 0.457 | 0.409 | 0.871 | 0.618 | 0.788 | 0.647 | 0.551 | 0.331 |  | 0.362 | 0.229 | 0.332 | 0.43
CAL-12T | 1.13 | 1.04 |  | 1.37 | 0.894 | 0.438 | 0.412 | 0.257 | 0.227 | 1.17 | 1.08 | 1.3 | 0.953 | 0.72 | 0.438 | 0.285 | 0.504 | 0.489 | 0.364 | 0.266
COR-L23 | 1.15 | 1.1 | 0.963 | 0.965 | 0.184 | 0.166 | 0.181 | 0.177 | 0.119 | 0.212 | 0.19 | 0.2 | 0.192 | 0.183 | 0.522 | 0.503 | 0.499 | 0.57 | 0.662 | 0.143
COR-L 105 | 1.01 | 0.86 | 0.769 | 0.674 | 0.44 | 0.609 | 0.546 | 0.524 | 0.403 | 1.09 | 1.05 | 0.973 | 0.981 | 0.964 | 0.346 | 0.375 | 0.388 | 0.352 | 0.368 | 0.505
Calu-6 | 1.04 | 1.17 | 0.974 | 0.452 | 0.137 | 0.234 | 0.285 | 0.182 | 0.14 |  |  |  |  |  |  |  |  |  |  | 0.166
ChaGo-K-1 | 0.996 | 0.875 | 0.948 | 1.05 | 0.91 | 0.28 | 0.28 | 0.222 | 0.242 | 0.297 | 0.254 | 0.251 | 0.256 | 0.258 | 0.524 | 0.508 | 0.608 | 0.578 | 0.626 | 0.198
EBC-1 | 0.507 | 0.616 | 0.458 | 0.325 | 0.135 | 0.318 | 0.197 | 0.187 | 0.18 |  |  |  |  |  |  |  |  |  |  | 0.157
EKVX | 1.15 | 1.02 | 1.05 | 1.01 | 0.935 | 0.551 | 0.454 | 0.322 | 0.232 | 0.42 | 0.474 | 0.396 | 0.409 | 0.416 | 0.534 | 0.625 | 0.564 | 0.582 | 0.591 | 0.252
EMC-BAC-2 | 1.1 | 1.09 | 1.08 | 1.02 | 0.986 |  | 0.405 | 0.371 | 0.294 | 0.482 | 0.462 | 0.486 | 0.524 | 0.438 | 0.316 | 0.603 | 0.365 | 0.309 | 0.314 | 0.298
EPLC-272H | 0.772 | 1.09 | 0.918 | 0.98 | 0.779 | 0.32 | 0.255 |  | 0.337 | 0.42 | 0.359 | 0.308 | 0.345 | 0.358 | 0.303 |  | 0.363 |  | 0.43 | 0.15
H3255 | 0.906 | 0.664 | 0.616 | 0.767 | 0.651 | 0.487 | 0.469 | 0.415 | 0.378 | 0.585 | 0.587 | 0.565 | 0.57 | 0.567 | 0.409 |  | 0.332 | 0.302 | 0.36 | 0.43
HARA | 1.12 | 1.03 | 1.09 | 1.15 | 1.14 | 0.379 | 0.248 | 0.28 | 0.168 | 0.228 | 0.231 | 0.283 | 0.247 | 0.222 | 0.193 |  | 0.247 | 0.237 | 0.239 | 0.147
HCC-15 | 1.02 | 1.14 | 1.05 | 1.03 | 0.952 | 0.472 | 0.363 | 0.253 | 0.168 | 0.214 | 0.248 | 0.226 | 0.231 | 0.235 | 0.662 |  | 0.585 | 0.707 | 0.608 | 0.178
HCC-44 | 0.926 | 0.848 | 0.794 | 0.802 | 0.575 | 0.808 | 0.738 | 0.627 | 0.757 | 0.697 | 0.654 | 0.619 | 0.622 | 0.621 |  |  |  |  |  | 0.739

Source: the supplement of paper PMC10307832
